Laboratory results reported in ChEMBL document CHEMBL1156967 (Bioorg Med Chem Lett, 2010).

Legend:
[1] = Intrinsic clearance in human liver microsomes; assay type: ADME, Microsome
Rattus norvegicus [2] = test: Antiinflammatory activity in Lewis rat plasma assessed as reduction in LPS-stimulated TNFalpha accumulation at 5 mg/kg, ig administered 4 hrs before LPS challenge measured after […] by ELISA; assay type: functional; details: po, route intragastric
[3] = Half life in human liver microsomes; assay type: ADME, Microsome
[4] = target: Mitogen-activated protein kinase 14 (Homo sapiens, UniProt Q16539); test: Inhibition of p38alpha assessed as gamma-[33P]ATP incorporation by scintillation counting
Mitogen-activated protein kinase 14, sequence (Q16539 whole entry): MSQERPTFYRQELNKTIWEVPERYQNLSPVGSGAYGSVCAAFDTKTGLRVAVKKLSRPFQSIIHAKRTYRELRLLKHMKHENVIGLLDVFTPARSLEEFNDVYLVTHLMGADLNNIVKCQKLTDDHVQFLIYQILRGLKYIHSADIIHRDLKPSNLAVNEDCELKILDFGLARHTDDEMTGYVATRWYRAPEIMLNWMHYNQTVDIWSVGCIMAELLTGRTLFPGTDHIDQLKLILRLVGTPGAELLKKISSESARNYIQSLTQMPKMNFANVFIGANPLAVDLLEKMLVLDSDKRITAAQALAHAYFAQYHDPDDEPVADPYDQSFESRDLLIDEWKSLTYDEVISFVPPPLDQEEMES

Mus musculus = test: Antiarthritic activity against collagen-induced arthritis in DBA/1 mouse chronic CIA model assessed as incidence of arthritis at 30 mg/kg, po after 21 days; assay type: functional
hERG (KCNH2) = hERG (KCNH2) (Homo sapiens, UniProt Q12809); test: Displacement of dofetilide from human ERG at 10 uM; details: probe dofetilide
hERG (KCNH2), sequence (Q12809 whole entry): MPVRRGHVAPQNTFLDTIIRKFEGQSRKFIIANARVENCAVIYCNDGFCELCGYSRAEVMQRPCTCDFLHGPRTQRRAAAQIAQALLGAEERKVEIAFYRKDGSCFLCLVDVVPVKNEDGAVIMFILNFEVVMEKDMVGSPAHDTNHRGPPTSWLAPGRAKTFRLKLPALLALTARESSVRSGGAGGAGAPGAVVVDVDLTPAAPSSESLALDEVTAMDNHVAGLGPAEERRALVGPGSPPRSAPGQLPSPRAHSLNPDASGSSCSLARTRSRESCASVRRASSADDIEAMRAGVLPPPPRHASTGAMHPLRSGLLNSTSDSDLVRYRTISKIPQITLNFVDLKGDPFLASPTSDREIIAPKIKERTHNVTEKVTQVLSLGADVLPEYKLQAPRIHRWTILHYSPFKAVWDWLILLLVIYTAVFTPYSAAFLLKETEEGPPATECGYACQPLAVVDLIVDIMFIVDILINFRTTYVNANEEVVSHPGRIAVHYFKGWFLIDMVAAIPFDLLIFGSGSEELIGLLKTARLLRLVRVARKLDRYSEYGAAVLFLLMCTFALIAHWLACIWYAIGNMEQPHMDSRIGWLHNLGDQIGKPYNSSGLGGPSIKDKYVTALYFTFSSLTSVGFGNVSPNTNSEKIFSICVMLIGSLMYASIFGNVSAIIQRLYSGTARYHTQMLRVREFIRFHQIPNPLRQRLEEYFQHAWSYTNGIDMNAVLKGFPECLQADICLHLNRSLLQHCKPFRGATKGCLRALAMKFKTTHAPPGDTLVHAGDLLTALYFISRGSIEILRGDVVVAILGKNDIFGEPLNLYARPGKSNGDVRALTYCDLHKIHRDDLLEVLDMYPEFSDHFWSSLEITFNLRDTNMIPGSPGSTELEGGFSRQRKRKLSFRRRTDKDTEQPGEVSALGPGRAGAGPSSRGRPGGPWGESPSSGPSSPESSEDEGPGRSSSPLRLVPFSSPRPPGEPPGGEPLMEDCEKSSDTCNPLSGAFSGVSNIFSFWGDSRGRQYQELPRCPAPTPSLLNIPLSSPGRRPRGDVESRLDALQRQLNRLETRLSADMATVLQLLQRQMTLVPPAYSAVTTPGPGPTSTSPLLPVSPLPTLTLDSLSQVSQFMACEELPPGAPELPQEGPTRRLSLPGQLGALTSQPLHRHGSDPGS

[5] = target: Mitogen-activated protein kinase 11 (Homo sapiens, UniProt Q15759); test: Inhibition of p38beta assessed as gamma-[33P]ATP incorporation by scintillation counting
Mitogen-activated protein kinase 11, sequence (Q15759 whole entry): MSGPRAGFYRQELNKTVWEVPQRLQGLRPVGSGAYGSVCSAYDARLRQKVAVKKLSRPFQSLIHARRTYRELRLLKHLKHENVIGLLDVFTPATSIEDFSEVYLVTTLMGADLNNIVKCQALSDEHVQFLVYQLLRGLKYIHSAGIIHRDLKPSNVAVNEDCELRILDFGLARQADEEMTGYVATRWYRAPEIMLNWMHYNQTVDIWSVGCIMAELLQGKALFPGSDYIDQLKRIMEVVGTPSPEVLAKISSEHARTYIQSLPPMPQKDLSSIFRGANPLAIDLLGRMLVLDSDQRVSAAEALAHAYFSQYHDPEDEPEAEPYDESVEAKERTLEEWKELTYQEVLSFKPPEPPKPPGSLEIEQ

Rattus norvegicus [6] = test: Antiinflammatory activity in Lewis rat plasma assessed as reduction in LPS-stimulated TNFalpha accumulation at 20 mg/kg, ig administered 4 hrs before LPS challenge measured after […] by ELISA; assay type: functional; details: po, route intragastric
[7] = target: Voltage-gated inwardly rectifying potassium channel KCNH2 (Homo sapiens, UniProt Q12809); test: Inhibition of human ERG by patch clamp technique
Voltage-gated inwardly rectifying potassium channel KCNH2, sequence (Q12809 whole entry): as the sequence (Q12809 whole entry) above

Rattus norvegicus [8] = test: Antiinflammatory activity in Lewis rat assessed as reduction in LPS-stimulated TNFalpha accumulation at 1 mg/kg, ig administered 4 hrs before LPS challenge measured after […] by ELISA; assay type: functional; details: po, route intragastric
Blood = test: Antiinflammatory activity against LPS-induced TNFalpha production in human whole blood treated 1 hr before LPS challenge measured after 4 hrs by ELISA; assay type: functional, tissue-based
[9] = Selectivity ratio of IC50 for p38 beta to IC50 for p38alpha

Compound	CLint scaled [1] [mL/min/kg]	inhibition in vivo at 5 mg/kg (Rattus norvegicus [2]) [%]	half-life [3] [h]	IC50 [4] [µM]	Activity (Mus musculus) [%]	inhibition at 10 µM (hERG (KCNH2)) [%]	IC50 [5] [µM]	inhibition in vivo at 20 mg/kg (Rattus norvegicus [6]) [%]	IC50 [7] [µM]	inhibition in vivo at 1 mg/kg (Rattus norvegicus [8]) [%]	IC50 (Blood) [µM]	Ratio IC50 [9]
OCCN1CCC(c2[nH]nc(-c3ccc(Cl)cc3)c2-c2ccncc2)CC1	32	88	0.508	0.041	70	61	3.39					
Cc1ccc(-c2n[nH]c(C3CCN(C)CC3)c2-c2ccncc2)cc1				0.0996			3.07	44				
CC(=O)N1CCC(c2[nH]nc(-c3ccc(F)cc3)c2-c2ccncc2)CC1		41					2.77		0.79			
COCCCN1CCC(c2[nH]nc(-c3ccc(Cl)cc3)c2-c2ccncc2)CC1				0.106			6.55					
CC(=O)N1CCC(c2[nH]nc(-c3ccc(Cl)cc3)c2-c2ccncn2)CC1	9.5	90	1.7	0.152	50		3.71			72		
Clc1ccc(-c2n[nH]c(C3CCN(C4CCOC4)CC3)c2-c2ccncn2)cc1 (stereo unspecified)	16.3	70	1.02	0.031	50	35	7.41			80	0.52	
Clc1ccc(-c2n[nH]c(C3CCN(C4CCOCC4)CC3)c2-c2ccncn2)cc1		46		0.205			9.5				> 5	
CN1CCC(c2[nH]nc(-c3ccc(F)cc3)c2-c2ccncc2)CC1		77		0.0547			1.96					35
CN1CCC(c2[nH]nc(-c3cccc(C(F)(F)F)c3)c2-c2ccncc2)CC1		6		0.0265			0.164					
CN(C)C(=O)N1CCC(c2[nH]nc(-c3ccc(Cl)cc3)c2-c2ccncn2)CC1		88		0.088			3.48			53		
COCC(=O)N1CCC(c2[nH]nc(-c3ccc(Cl)cc3)c2-c2ccncc2)CC1		90					3.45					
NS(=O)(=O)N1CCC(c2[nH]nc(-c3ccc(Cl)cc3)c2-c2ccncc2)CC1		68		0.014			1.65					
CC(C)(CO)N1CCC(c2[nH]nc(-c3ccc(Cl)cc3)c2-c2ccncn2)CC1		0		0.184			2.78					
CC(C)(O)CN1CCC(c2[nH]nc(-c3ccc(Cl)cc3)c2-c2ccncn2)CC1		34		0.088			9.78			3	1	
O=C(CO)N1CCC(c2[nH]nc(-c3ccc(Cl)cc3)c2-c2ccncc2)CC1	15.8	85	1.03		60	24	1.79					
CS(=O)(=O)N1CCC(c2[nH]nc(-c3ccc(Cl)cc3)c2-c2ccncn2)CC1	18.1	89	0.898	0.198	44		4.1			26	> 5	
CS(=O)(=O)N1CCC(c2[nH]nc(-c3ccc(Cl)cc3)c2-c2ccncc2)CC1		75		0.07			3.53					
